Laboratory results taken from patent US12479852B2, “Compounds, compositions, and methods for protein degradation” (DANA-FARBER CANCER INSTITUTE, INC., priority 2019, dated 2025).

System: synovial sarcoma cell lines
Test: testing against a panel of synovial sarcoma cell lines (antiproliferation)
Assay type: cell-based
Conditions: FIG. 1

## O=C(CCOCCOCCOCCNc1cccc2c1C(=O)N(C1CCC(=O)NC1=O)C2=O)NCCc1ccc(N2C[C@@H]3C[C@H]2CN3/C=C/C(=O)c2ccccc2O)cc1 (stereo partly drawn) [Compound E1, 3-(2-(2-(2-((2-(2,6-dioxopiperidin-3-yl)-1,3-dioxoisoindolin-4-yl)amino)ethoxy)ethoxy)ethoxy)-N-(4-((1S,4S)-5-((E)-3-(2-hydroxyphenyl)-3-oxoprop-1-en-1-yl)-2,5-diazabicyclo[2.2.1]heptan-2-yl)phenethyl)propanamide]
  antiproliferation effect against synovial sarcoma lines: antiproliferation effect
